Results from patent US20040010036A1, “N,N, -Substituted s-Aryl-Isothioureas, N,N,N, -Substituted s-Aryl-Isothioureas and combinatorial libraries thereof” (priority 2002, published 2004).

What follows are compounds tested on Streptococcus pyogenes (ATCC# 97-03 14289) (assay: Anti-microbial screen (percent inhibition of growth, OD 570 nm)). Details: Spy4H: Streptococcus pyogenes, read at 4 hours, OD 570 nm; Conc 0.1776 mg ml.
Format: cell-based
Protocol: Streptococcus pyogenes (ATCC# 97-03 14289) was grown in Todd Hewitt Broth (THB) (Difco Laboratories #0492-17-6) overnight until reaching an optical density of (OD=0.636@570 nm) by reading 0.1 ml in a 96 well microtiter plate in a Molecular Devices Thermomax. This preparation was kept frozen as stocks in 30% v/v glycerol in 1.5 ml aliquots at […] until use. Prior to experiments, 6 ml aliquots were thawed and diluted into 50 ml 2×THB. 60 ul of this dilution was added to 92 wells of microtiter plate. To three wells THB (200 ul) was added to serve as a blank and a sterility control. Test compounds in DMSO and appropriate concentrations of DMSO were added to Growth/Solvent Controls at 0 time. Plates were read at 0 time at 570 nm in the Molecular Devices plate reader to obtain compounds correction factors for insoluble or colored compounds. Plates were read again at 4 hours.
Percent inhibition is calculated with the following formula:
Color correct=O.D. 0 hr - Blank 0 hr)-(Solvent Control Ohr - Blank 0 hr) [formula]
Compound Cc1ccc(CN(Cc2cccc(O)c2)/C(=N/c2ccccc2[N+](=O)[O-])Sc2ccc(C)cc2C)cc1 [Cmpd 226] has an inhibition of growth at 177.6 µg/mL of 74.4%.
Work on Cc1cccc(S/C(=N\Cc2ccc(F)cc2)N(CCc2ccc(Cl)cc2)Cc2cccc(O)c2)c1 [Cmpd 684] yielded an inhibition of growth at 177.6 µg/mL of 94.1%.
Cc1ccc(S/C(=N\c2ccc(Cl)cc2)N(Cc2cccc(O)c2)CC2CCCCC2)c(C)c1 [Cmpd 1265] was tested, and the inhibition of growth at 177.6 µg/mL was 88.3%.
For Cc1cccc(S/C(=N/c2ccc(Cl)c([N+](=O)[O-])c2)N(Cc2ccccc2)Cc2cccc(O)c2)c1 [Cmpd 1143], the inhibition of growth at 177.6 µg/mL was 97.1%.
Compound COc1cccc(S/C(=N\c2cc(Cl)cc(Cl)c2)N(CCc2ccc(F)cc2)Cc2cccc(O)c2)c1 [Cmpd 933] has an inhibition of growth at 177.6 µg/mL of 59.8%.
COCCN(Cc1cccc(O)c1)/C(=N\c1cccc(F)c1)Sc1ccc(C)cc1C [Cmpd 83] gave an inhibition of growth at 177.6 µg/mL of 70.9%.
Cc1ccc(CN(Cc2ccc(O)cc2)/C(=N\c2ccc(Cl)c(C(F)(F)F)c2)Sc2ccc(C)cc2C)cc1 [Cmpd 33] was tested, and the inhibition of growth at 177.6 µg/mL was 57.8%.
COc1cccc(S/C(=N\c2cccc(C(F)(F)F)c2)N(CCc2ccc(F)cc2)Cc2cccc(O)c2)c1 [Cmpd 926] gave an inhibition of growth at 177.6 µg/mL of 96%.
Cc1ccc(S/C(=N/c2ccc(Cl)c(C(F)(F)F)c2)N(Cc2ccc(O)cc2)CC(C)C)cc1 [Cmpd 273] gave an inhibition of growth at 177.6 µg/mL of 64.6%.
Cc1cccc(S/C(=N/Cc2ccc(F)cc2)N(Cc2cccc(O)c2)CC(C)C)c1 [Cmpd 524] gave an inhibition of growth at 177.6 µg/mL of 89.5%.
In the case of COc1cccc(S/C(=N\c2ccc(C(F)(F)F)cc2)N(CCc2ccc(Cl)cc2)Cc2ccc(O)cc2)c1 [Cmpd 367], the inhibition of growth at 177.6 µg/mL is reported as 70.5%.
With Cc1ccc(S/C(=N/c2ccc(F)c(F)c2)N(Cc2ccc(O)cc2)CC(C)C)cc1 [Cmpd 276] the inhibition of growth at 177.6 µg/mL was 62.1%.
Compound COc1ccc(C)cc1/N=C(\Sc1ccc(C)cc1C)N(Cc1ccc(C)cc1)Cc1cccc(O)c1 [Cmpd 229] has an inhibition of growth at 177.6 µg/mL of 65.8%.
In the case of Cc1cccc(S/C(=N\c2ccc(Cl)c([N+](=O)[O-])c2)N(CCc2ccc(Cl)cc2)Cc2ccc(O)cc2)c1 [Cmpd 1183], the inhibition of growth at 177.6 µg/mL is reported as 62.7%.
Cc1ccc(S/C(=N\c2ccc(F)c(Cl)c2)N(Cc2cccc(O)c2)CC2CCCCC2)c(C)c1 [Cmpd 1254] showed an inhibition of growth at 177.6 µg/mL of 62.1%.
In the case of CCCCN(Cc1cccc(O)c1)/C(=N\c1ccc(F)c(F)c1)Sc1ccccc1 [Cmpd 756], the inhibition of growth at 177.6 µg/mL is reported as 71.9%.
COCCN(Cc1cccc(O)c1)/C(=N\c1ccc(F)cc1F)Sc1ccc(C)cc1C [Cmpd 85] was tested, and the inhibition of growth at 177.6 µg/mL was 82.3%.
With COc1cccc(S/C(=N\c2cccc(F)c2)N(CCc2ccc(F)cc2)Cc2cccc(O)c2)c1 [Cmpd 923] the inhibition of growth at 177.6 µg/mL was 63.9%.

Same assay, conditions: Streptococcus pyogenes; Assay Spy4H; Conc 0.1776 mg ml; plates read at 570 nm at 0 time and at 4 hours
In the case of COc1ccc(C)cc1/N=C(\Sc1ccc(C)cc1C)N(Cc1ccc(C)cc1)Cc1ccc(O)cc1 [Cmpd 29], the inhibition of growth at 177.6 µg/mL is reported as 53.7%.
In the case of Cc1ccc(CN(Cc2cccc(O)c2)/C(=N/c2cc(Cl)cc(Cl)c2)Sc2ccc(C)cc2C)cc1 [Cmpd 213], the inhibition of growth at 177.6 µg/mL is reported as 57.1%.
Compound Cc1cccc(C/N=C(\Sc2ccc(C)cc2C)N(CCc2ccc(Cl)cc2)Cc2cccc(O)c2)c1 [Cmpd 282] has an inhibition of growth at 177.6 µg/mL of 49.8%.
COc1cccc(CN(Cc2ccc(O)cc2)/C(=N/c2ccc(C(F)(F)F)cc2)Sc2cccc(OC)c2)c1 [Cmpd 767] was tested, and the inhibition of growth at 177.6 µg/mL was 52.4%.
COCCN(Cc1cccc(O)c1)/C(=N\c1ccc(F)c(Cl)c1)Sc1ccc(C)cc1C [Cmpd 94] showed an inhibition of growth at 177.6 µg/mL of 54%.
Compound COc1cccc(S/C(=N\c2cccc(C(F)(F)F)c2)N(CCc2ccc(Cl)cc2)Cc2ccc(O)cc2)c1 [Cmpd 366] has an inhibition of growth at 177.6 µg/mL of 49.1%.
With Cc1cccc(C/N=C(/Sc2cccc(C)c2)N(Cc2cccc(O)c2)CC(C)C)c1 [Cmpd 522] the inhibition of growth at 177.6 µg/mL was 54.6%.
Compound Cc1ccc(S/C(=N\c2ccc(Cl)c(Cl)c2)N(Cc2ccc(O)cc2)Cc2cccc(Cl)c2)cc1 [Cmpd 168] has an inhibition of growth at 177.6 µg/mL of 49.5%.
Compound Oc1cccc(CN(Cc2ccc(Cl)c(Cl)c2)/C(=N/c2cccc(Cl)c2)Sc2ccccc2)c1 [Cmpd 852] has an inhibition of growth at 177.6 µg/mL of 50%.
COc1cccc(S/C(=N\c2ccc(C(F)(F)F)cc2)N(CCc2ccc(F)cc2)Cc2cccc(O)c2)c1 [Cmpd 927] gave an inhibition of growth at 177.6 µg/mL of 49.4%.
